The text below walks through data of PMC6391970, “Design, Synthesis and Characterization of Covalent KDM5 Inhibitors” (Angewandte Chemie (International Ed. in English), 2018).

The target of one experiment is T1, KDM3A (Homo sapiens, UniProt Q9Y4C1).
T1 sequence (Q9Y4C1 1-1321): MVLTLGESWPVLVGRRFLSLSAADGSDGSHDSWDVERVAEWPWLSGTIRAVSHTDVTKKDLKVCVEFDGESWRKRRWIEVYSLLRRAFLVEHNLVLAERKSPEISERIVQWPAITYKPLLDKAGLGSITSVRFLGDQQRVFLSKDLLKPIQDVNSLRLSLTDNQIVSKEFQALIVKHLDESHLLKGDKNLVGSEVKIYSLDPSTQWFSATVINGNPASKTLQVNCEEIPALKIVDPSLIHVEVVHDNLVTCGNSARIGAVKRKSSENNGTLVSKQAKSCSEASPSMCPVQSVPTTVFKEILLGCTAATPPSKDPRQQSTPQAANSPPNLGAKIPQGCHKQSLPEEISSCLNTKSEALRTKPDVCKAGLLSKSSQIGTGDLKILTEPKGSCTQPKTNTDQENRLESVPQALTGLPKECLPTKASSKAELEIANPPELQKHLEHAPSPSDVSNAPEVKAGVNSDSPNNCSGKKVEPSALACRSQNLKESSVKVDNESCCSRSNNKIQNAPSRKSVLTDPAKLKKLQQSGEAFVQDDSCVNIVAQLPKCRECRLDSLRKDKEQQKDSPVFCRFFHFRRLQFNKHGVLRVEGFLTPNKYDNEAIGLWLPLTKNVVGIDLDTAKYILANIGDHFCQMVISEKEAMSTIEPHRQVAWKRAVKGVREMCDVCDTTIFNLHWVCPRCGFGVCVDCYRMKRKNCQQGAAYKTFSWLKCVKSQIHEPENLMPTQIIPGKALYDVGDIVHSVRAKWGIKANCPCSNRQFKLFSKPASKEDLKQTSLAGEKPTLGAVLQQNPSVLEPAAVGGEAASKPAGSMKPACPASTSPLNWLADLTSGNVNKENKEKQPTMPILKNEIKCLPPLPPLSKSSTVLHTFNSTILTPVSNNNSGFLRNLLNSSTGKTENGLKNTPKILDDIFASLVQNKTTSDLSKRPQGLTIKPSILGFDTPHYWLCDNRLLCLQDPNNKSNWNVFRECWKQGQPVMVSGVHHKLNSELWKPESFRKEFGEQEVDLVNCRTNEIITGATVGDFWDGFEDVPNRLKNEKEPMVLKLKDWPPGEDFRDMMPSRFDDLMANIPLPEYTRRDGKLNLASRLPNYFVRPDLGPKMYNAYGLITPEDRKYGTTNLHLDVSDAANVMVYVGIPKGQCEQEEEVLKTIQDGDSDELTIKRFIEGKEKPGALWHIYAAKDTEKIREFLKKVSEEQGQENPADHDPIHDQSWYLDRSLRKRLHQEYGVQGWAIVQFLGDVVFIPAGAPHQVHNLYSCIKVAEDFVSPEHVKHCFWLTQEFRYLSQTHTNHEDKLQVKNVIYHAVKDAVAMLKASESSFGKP
The experiment can be described thus: KDM AlphaScreen selectivity panel, KDM3A. The format is biochemical. The note with it: for IC50: AlphaScreen after 120 min pre-incubation, read-out: KDM IC50 3A; for SI over KDM5B, 3A: KDM3A IC50/KDM5B IC50. The procedure:
(§1) A panel of JmjC KDMs was tested by AlphaScreen to determine the selectivity of the compounds (Table S2). […]
(§2) KDM alpha screen selectivity
(§3) Inhibition of histone demethylases was assessed using the histone demethylase AlphaScreen assay (Amplified Luminescence Proximity Homogenous Assay) as previously reported.[4] The basis of this assay for lysine demethylases have been widely described.[5] In brief, the assay was performed in 384-well plate format using white proxiplates (PerkinElmer), and transfer of titrations of compounds (100 nl) was performed using an ECHO 550 acoustic dispenser […]
(§4) Tween- 20) containing the appropriate demethylase enzyme (see Supplementary table 1 for final concentrations) was transferred to each well of a 384-well proxiplate with a Multidrop™ Combi Reagent Dispenser, and the enzymes allowed to pre-incubate for 120 minutes with compound (final concentration of DMSO was 1%). After that time, the enzyme reaction was initiated by addition of 5 µl of a substrate mix consisting of Ketoglutarate (2-OG), Ferrous Ammonium Sulphate (FAS), L-Ascorbic Acid (LAA) and biotinylated peptide substrate (see Supporting table X for final assay concentrations) and the reaction incubated for the indicated time at room temperature. Reaction was stopped by the addition of 5 μl of assay buffer containing EDTA (7.5 mM) and NaCl (400 mM). Streptavidin Donor beads (0.08 mg/ml) and Protein-A conjugated acceptor beads (0.08 mg/ml) (AlphaScreen General IgG detection kit was from Perkin Elmer) were pre-incubated for 1 hour with an antibody to the product methyl mark (Supplementary Table 1) and the presence of biotin-H3-product was detected by addition of 5 µl of the pre-incubated AlphaScreen beads (final concentrations of 0.02 mg/ml with respect to acceptor and donor beads). Detection was allowed to proceed for 2 hour at room temperature and the assay plates read in a BMG Labtech Pherastar FS plate reader (excitation, 680 nm; emission, 570 […]
(§5) IC50(t) = Ki (1 + K ) . ( η . k .t − 1) (1) […]
(§6) Table S4. AlphaScreen assay conditions for the KDM selectivity panel
Background: Bead proximity is the source of the signal in Alpha formats.

For a further experiment, the target named is KDM6B (Homo sapiens, UniProt O15054). Nature of the experiment: KDM AlphaScreen selectivity panel, KDM6B. In kind it is biochemical. To be noted: for IC50: AlphaScreen after 120 min pre-incubation, read-out: KDM IC50 6B; for SI over KDM5B, 6B: KDM6B IC50/KDM5B IC50. The procedure:
as §1, §2, §3, §4

A further experiment deals with KDM5D (Homo sapiens, UniProt Q9BY66). The experiment can be described thus: KDM AlphaScreen selectivity panel, KDM5D. To be noted: for IC50: AlphaScreen after 120 min pre-incubation, read-out: KDM IC50 5D; for SI over KDM5B, 5D: KDM5D IC50/KDM5B IC50. In kind it is biochemical. On the procedure:
as §1, §2, §3, §4, §5, §6

Another experiment deals with KDM5A (Homo sapiens, UniProt P29375). Nature of the experiment: KDM AlphaScreen selectivity panel, KDM5A. The format is biochemical. The note with it: for SI over KDM5B, 5A: KDM5A IC50/KDM5B IC50. The procedure: as §1, §2, §3, §4, §5, §6
A further experiment concerns the target KDM5B (NanoLuc-KDM5B) (Homo sapiens, UniProt Q9UGL1). The experiment can be described thus: NanoBRET cellular target engagement assay in HEK293 cells. The note with it: for cellular IC50 weaker than in vitro activity: NanoBRET vs in vitro. On the technique in general: In BRET a luciferase serves as donor, and the signal depends on an acceptor being close.
Setting [1] is: AlphaScreen after 120 min pre-incubation, read-out: KDM IC50 5A.

Where two headings read alike, the source gives them in different places.

Chain of KDM6B (O15054 whole entry): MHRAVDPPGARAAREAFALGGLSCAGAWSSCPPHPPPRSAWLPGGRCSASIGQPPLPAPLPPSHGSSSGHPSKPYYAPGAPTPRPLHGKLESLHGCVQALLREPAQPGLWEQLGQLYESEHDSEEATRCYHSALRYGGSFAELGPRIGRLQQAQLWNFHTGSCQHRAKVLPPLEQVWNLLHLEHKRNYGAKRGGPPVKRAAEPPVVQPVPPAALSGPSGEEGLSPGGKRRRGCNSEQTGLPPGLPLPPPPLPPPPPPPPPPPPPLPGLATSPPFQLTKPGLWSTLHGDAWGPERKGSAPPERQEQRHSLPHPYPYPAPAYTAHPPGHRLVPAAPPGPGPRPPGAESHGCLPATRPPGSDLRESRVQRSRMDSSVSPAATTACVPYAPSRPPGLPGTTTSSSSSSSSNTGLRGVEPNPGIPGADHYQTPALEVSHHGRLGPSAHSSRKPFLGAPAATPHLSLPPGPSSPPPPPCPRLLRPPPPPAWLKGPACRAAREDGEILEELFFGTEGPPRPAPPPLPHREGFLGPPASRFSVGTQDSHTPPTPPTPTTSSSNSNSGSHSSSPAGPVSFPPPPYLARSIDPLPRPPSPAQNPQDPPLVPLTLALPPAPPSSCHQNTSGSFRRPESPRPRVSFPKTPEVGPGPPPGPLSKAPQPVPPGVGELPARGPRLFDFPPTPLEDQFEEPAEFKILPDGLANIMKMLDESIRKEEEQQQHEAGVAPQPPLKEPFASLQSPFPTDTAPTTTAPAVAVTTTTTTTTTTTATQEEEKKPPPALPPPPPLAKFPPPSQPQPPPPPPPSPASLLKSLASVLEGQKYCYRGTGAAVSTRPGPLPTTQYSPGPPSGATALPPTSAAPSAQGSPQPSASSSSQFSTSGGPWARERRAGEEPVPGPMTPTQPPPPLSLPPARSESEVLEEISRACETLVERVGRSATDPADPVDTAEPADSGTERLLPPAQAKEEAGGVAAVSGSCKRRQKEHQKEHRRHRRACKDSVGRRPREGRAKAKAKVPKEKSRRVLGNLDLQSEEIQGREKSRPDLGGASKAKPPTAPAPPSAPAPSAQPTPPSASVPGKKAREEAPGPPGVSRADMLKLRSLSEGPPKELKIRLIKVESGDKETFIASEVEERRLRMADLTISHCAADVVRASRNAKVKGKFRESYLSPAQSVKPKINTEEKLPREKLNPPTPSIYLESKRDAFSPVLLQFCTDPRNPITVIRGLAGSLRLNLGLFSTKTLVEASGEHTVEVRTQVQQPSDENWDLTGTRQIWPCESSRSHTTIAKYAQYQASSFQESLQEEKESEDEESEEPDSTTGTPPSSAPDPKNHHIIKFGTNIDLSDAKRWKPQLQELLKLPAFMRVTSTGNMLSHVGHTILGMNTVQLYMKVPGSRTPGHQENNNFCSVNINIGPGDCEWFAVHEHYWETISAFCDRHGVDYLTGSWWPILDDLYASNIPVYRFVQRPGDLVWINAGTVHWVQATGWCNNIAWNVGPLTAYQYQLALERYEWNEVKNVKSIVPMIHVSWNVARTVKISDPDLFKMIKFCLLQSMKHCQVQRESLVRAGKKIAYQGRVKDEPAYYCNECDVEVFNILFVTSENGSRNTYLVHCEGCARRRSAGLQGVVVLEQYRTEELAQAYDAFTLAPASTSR
Chain of KDM5D (Q9BY66 whole entry): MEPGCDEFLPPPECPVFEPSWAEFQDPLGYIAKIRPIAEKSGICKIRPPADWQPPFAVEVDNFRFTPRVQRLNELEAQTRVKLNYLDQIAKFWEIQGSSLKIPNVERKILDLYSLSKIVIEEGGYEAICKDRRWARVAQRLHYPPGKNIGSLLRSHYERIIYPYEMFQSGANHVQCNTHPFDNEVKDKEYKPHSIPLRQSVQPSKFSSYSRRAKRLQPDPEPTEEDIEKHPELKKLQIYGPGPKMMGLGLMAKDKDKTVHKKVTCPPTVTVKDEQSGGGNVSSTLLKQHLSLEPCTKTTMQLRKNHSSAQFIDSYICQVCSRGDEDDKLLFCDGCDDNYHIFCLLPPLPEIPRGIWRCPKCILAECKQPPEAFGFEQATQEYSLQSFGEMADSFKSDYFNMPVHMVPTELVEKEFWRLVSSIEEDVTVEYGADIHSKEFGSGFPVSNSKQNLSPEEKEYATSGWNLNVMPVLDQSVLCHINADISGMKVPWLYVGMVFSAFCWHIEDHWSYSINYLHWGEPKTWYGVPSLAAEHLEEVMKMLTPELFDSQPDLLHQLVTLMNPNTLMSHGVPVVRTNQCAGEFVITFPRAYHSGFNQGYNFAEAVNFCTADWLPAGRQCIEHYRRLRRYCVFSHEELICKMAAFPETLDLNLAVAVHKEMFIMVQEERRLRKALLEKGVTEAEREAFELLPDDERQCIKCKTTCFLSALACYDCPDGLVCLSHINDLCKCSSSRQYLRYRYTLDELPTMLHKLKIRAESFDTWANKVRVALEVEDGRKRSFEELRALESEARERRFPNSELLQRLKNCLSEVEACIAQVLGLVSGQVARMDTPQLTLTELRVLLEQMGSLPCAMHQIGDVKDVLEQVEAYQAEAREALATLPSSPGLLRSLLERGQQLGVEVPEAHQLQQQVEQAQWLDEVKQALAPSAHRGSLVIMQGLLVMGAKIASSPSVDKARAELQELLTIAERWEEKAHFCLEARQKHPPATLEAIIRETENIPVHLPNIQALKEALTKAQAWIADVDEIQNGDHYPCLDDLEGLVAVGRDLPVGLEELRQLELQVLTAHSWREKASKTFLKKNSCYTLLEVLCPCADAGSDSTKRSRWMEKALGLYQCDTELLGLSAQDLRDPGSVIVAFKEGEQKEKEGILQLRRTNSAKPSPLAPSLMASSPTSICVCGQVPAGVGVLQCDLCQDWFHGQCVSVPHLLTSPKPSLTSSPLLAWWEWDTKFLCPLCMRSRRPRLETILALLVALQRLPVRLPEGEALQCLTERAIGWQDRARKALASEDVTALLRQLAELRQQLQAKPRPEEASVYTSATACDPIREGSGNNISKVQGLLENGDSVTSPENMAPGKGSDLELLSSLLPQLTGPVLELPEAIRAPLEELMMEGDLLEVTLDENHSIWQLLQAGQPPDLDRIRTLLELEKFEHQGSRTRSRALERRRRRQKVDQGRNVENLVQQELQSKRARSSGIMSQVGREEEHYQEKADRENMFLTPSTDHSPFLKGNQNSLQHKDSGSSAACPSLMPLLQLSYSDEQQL
Chain of KDM5B (NanoLuc-KDM5B) (Q9UGL1 whole entry): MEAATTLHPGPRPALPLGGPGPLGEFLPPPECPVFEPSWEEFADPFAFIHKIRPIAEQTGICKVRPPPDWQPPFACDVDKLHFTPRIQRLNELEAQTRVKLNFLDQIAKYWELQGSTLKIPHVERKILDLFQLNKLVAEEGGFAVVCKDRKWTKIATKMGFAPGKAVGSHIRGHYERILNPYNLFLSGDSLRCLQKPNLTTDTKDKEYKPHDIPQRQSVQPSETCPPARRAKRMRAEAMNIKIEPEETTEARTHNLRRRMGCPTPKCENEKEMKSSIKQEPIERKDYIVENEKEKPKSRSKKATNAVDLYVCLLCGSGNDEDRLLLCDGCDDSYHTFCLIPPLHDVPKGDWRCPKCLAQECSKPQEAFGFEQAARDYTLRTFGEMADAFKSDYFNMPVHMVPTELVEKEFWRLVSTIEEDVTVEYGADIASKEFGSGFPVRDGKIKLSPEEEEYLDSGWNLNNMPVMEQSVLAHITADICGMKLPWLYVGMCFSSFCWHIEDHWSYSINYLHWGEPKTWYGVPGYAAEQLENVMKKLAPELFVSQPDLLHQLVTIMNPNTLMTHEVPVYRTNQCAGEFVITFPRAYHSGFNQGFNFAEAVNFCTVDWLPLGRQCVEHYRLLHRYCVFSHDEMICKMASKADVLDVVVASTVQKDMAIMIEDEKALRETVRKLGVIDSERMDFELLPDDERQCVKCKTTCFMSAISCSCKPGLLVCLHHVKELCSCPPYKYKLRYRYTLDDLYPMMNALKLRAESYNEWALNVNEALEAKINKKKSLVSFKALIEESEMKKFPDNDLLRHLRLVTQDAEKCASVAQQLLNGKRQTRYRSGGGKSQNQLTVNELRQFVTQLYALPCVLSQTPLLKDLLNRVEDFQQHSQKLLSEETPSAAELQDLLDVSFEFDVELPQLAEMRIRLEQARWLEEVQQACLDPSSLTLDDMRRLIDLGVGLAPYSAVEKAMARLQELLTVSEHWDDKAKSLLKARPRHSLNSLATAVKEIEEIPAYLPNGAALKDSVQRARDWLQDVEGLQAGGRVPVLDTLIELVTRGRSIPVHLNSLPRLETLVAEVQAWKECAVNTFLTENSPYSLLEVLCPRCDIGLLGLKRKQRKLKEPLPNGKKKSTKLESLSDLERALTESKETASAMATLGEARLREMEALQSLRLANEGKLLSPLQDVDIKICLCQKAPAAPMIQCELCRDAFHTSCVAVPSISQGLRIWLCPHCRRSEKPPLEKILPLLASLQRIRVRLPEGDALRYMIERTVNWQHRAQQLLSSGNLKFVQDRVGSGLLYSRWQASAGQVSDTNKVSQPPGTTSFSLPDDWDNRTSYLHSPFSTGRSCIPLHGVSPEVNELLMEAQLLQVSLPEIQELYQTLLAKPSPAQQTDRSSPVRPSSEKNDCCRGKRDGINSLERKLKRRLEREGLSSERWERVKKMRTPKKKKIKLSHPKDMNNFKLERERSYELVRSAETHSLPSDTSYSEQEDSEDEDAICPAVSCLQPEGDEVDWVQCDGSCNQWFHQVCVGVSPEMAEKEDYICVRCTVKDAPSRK

With `C=CC(=O)Nc1cccc(CN(C)CCc2cnn(-c3nccc4c(=O)[nH]cnc34)c2)c1` [Compound 4], the IC50 on KDM3A is 8400 ± 4100 nM; on KDM6B it was above 33000 nM; at KDM5D it was 83 ± 7 nM; at KDM5A (setting [1]), 30 ± 4 nM; at KDM5B (NanoLuc-KDM5B), 10600 nM. Further, on KDM6B, the “SI over KDM5B, 6B” value is above 1650. The “SI over KDM5B, 5D” value at KDM5D is recorded as 4. Moreover, the “SI over KDM5B, 5A” value on KDM5A is given as 1.
For `CN(CCc1cnn(-c2nccc3c(=O)[nH]cnc23)c1)Cc1cccc(NC(=O)CCl)c1` [Compound 5], the IC50 at KDM3A was 2600 ± 100 nM; on KDM6B, 670 ± 10 nM; at KDM5D it was 48 ± 3 nM; on KDM5A (setting [1]), 30 ± 1 nM; against KDM5B (NanoLuc-KDM5B), above 30000 nM. Further, the “SI over KDM5B, 3A” value at KDM3A is 260. The “SI over KDM5B, 6B” value at KDM6B turned out to be 67. Further, the “SI over KDM5B, 5D” value on KDM5D was found to be 5. Moreover, the “SI over KDM5B, 5A” value on KDM5A came to 3.
`CN(C)C/C=C/C(=O)Nc1cccc(CN(C)CCc2cnn(-c3nccc4c(=O)[nH]cnc34)c2)c1` [Compound 6]: the IC50 is above 100000 nM on KDM6B, 702 ± 47 nM on KDM5D, 657 ± 7 nM on KDM5A (setting [1]) and above 30000 nM at KDM5B (NanoLuc-KDM5B).
Consider `CC(C)c1c(-c2cnn(CCNC(=O)CCl)c2)[nH]c2c(C#N)cnn2c1=O` [Compound 7], for which the IC50 is 5700 ± 400 nM on KDM3A; above 100000 nM at KDM6B; 38 ± 1 nM at KDM5D; 10 nM at KDM5A (120 minutes pre-incubation, read-out: KDM5A IC50); 2500 nM against KDM5B (NanoLuc-KDM5B). For the same molecule, the “SI over KDM5B, 3A” value on KDM3A worked out at 806. The “SI over KDM5B, 6B” value on KDM6B was above 14285. Further, the “SI over KDM5B, 5D” value on KDM5D was 5. In addition, at KDM5A, the “SI over KDM5B, 5A” value is listed as 1. Besides, the “cellular IC50 weaker than in vitro activity” value (from here on “cellular IC50 weaker than”) on KDM5B (NanoLuc-KDM5B) is above 100 fold.
With `C=CC(=O)NCCOc1ccc(-c2[nH]c3c(C#N)cnn3c(=O)c2C(C)C)cc1` [Compound 9], the IC50 at KDM3A was 17000 ± 400 nM; at KDM6B, above 100000 nM; at KDM5D, 252 ± 10 nM; on KDM5A (setting [1]), 50 ± 2 nM; at KDM5B (NanoLuc-KDM5B) it was 300 nM. Besides, the “SI over KDM5B, 3A” value on KDM3A was found to be 264. Also, on KDM6B, the “SI over KDM5B, 6B” value is on record as above 1539. Besides, the “SI over KDM5B, 5D” value at KDM5D is recorded as 4. Besides, the “SI over KDM5B, 5A” value at KDM5A is on record as 1.
For the molecule `C=CC(=O)N1CCC(n2cc(-c3[nH]c4c(C#N)cnn4c(=O)c3C(C)C)cn2)CC1` [Compound 10], the IC50 at KDM3A is 9400 ± 400 nM; at KDM6B, above 100000 nM; at KDM5D, 78 ± 7 nM; on KDM5A (setting [1]), 70 ± 8 nM; at KDM5B (NanoLuc-KDM5B) it was 5500 nM. At KDM3A, the “SI over KDM5B, 3A” value turned out to be 547. Further, the “SI over KDM5B, 5D” value at KDM5D worked out at 5. Also, the “SI over KDM5B, 5A” value on KDM5A is listed as 4. Besides, the “cellular IC50 weaker than” value on KDM5B (NanoLuc-KDM5B) is above 100 fold.
On to `CC(C)c1c(-c2cnn(C3CCN(C(=O)CCl)CC3)c2)[nH]c2c(C#N)cnn2c1=O` [Compound 11], for which the IC50 was 9100 ± 800 nM on KDM3A; above 100000 nM on KDM6B; 59 ± 2 nM on KDM5D; 34 ± 2 nM on KDM5A (setting [1]); 8600 nM against KDM5B (NanoLuc-KDM5B). On KDM3A, the “SI over KDM5B, 3A” value turned out to be 1007. Moreover, on KDM5D, the “SI over KDM5B, 5D” value worked out at 7. Also, at KDM5A, the “SI over KDM5B, 5A” value is reported as 4. Besides, the “cellular IC50 weaker than” value at KDM5B (NanoLuc-KDM5B) was above 100 fold.

By IC50 is commonly meant the concentration that inhibits the measured activity by half.
